Laboratory results as given in patent publication US4914091A, “Esters of cephalosporin derivitives” (American Cyanamid Company, priority 1984, dated 1990).
Read-outs that look alike come from different tables or passages of the source.

Legend:
Klebsiella pneumoniae = assay: In vivo activity against lethal intraperitoneal Klebsiella pneumoniae infection in mice, single oral or subcutaneous dose; design: species or system Klebsiella pneumoniae (infection in Charles River CD-1 mice); details: CD-1 mice
Source text: Other representative compounds of the present invention were similarly tested against a lethal infection of Klebsiella pneumoniae in mice. Charles River CD-1 mice, each weighing about 20 g, were infected intraperitoneally with a lethal dose of Klebsiella pneumoniae. The median effective doses (ED50) in mg/kg were derived from the pooled data of three separate tests (including two range finding tests). The control, 7β-[2-(2-amino thiazol-4-yl)-(Z)-2-methoximinoacetamido]-3-[(1,2,3-thiadiazol-5-yl)-thiomethyl]ceph-3-em-4-carboxylic acid, provides a basis for comparison. All compounds were administered by single subcutaneous dose and single oral dose.

Escherichia coli No. 311 = assay: In vivo activity against lethal intraperitoneal Escherichia coli No. 311 infection in mice, single oral or subcutaneous dose; design: species or system Escherichia coli (infection in Charles River CD-1 mice); details: E. coli No. 311, CD-1 mice; for ED50: Escherichia coli, pooled data of three tests (cefaclor: estimated from two separate tests)
Procedure: To establish the pro-drug activity of, for example, the pivaloyloxymethyl ester of 7β-[2-(2-aminothiazol-4-yl)-(Z)-2-methoximinoacetamido]-3-[(1,2,3-thiadiasol-5-yl)-thiomethyl]ceph-3-em-4-carboxylic acid, the unesterified carboxylic acid and cefaclor (as control) were administered by single subcutaneous dose and single oral dose to separate groups of Charles River CD-1 mice, each weighing about 20 g, which mice had been infected intraperitoneally with a lethal dose of Escherichia coli No. 311. The median effective doses (ED50) in mg/kg were derived from the pooled data of three separate tests (including two range finding tests. The results of this testing appear in Table I.

[1] = single oral dose, pooled data of three tests, (95% Conf. Lim.), read-out: ED50, Single Oral Dose
[2] = sc, single subcutaneous dose, pooled data of three tests, (95% Conf. Lim.), read-out: ED50, Single Subcut. Dose
[3] = sc, single subcutaneous dose, read-out: ED50, Single Subcut. Dose
[4] = single oral dose, read-out: ED50, Single Oral Dose

Row | Compound | Ratio Oral ED50 / Subcutaneous ED50 (Klebsiella pneumoniae) | ED50 (Klebsiella pneumoniae; [1]) [mg/kg] | ED50 (Klebsiella pneumoniae; [2]) [mg/kg] | Ratio Oral ED50 / Subcutaneous ED50 (Escherichia coli No. 311) | ED50 (Escherichia coli No. 311; [3]) [mg/kg] | ED50 (Escherichia coli No. 311; [4]) [mg/kg] | ED50, Single Oral Dose (Klebsiella pneumoniae; single oral dose, pooled data of three tests, (95% Conf. Lim.)) [mg/kg] | ED50, Single Subcut. Dose (Klebsiella pneumoniae; single subcutaneous dose, pooled data of three tests, (95% Conf. Lim.)) [mg/kg]
1 | CCOC(=O)OC(C)OC(=O)C1=C(CSc2cnns2)CS[C@@H]2[C@H](NC(=O)/C(=N\OC)c3csc(N)n3)C(=O)N12 (stereo partly drawn) [Ethoxycarbonyl-Ethoxyethyl ester] | 2 | 1 to 2 | 0.5 to 1 |  |  |  |  | 
2 | N[C@@H](C(=O)N[C@@H]1C(=O)N2C(C(=O)O)=C(Cl)CS[C@H]12)c1ccccc1 [Cefaclor] |  |  |  | 2.8 | 5.7 | 16 |  | 
3 | CO/N=C(\C(=O)N[C@@H]1C(=O)N2C(C(=O)OCOC(=O)c3ccccc3)=C(CSc3cnns3)CS[C@H]12)c1csc(N)n1 [benzoyloxymethyl ester, Benzoyloxymethyl 7β-[2-(2-aminothiazol-4-yl)-(Z)-2-methoximinoacetamido]-3-[(1,2,3-thiadiazol-5-yl)-thiomethyl]ceph-3-em-4-carboxylate] | 2 | 4 to 8 | 2 to 4 |  |  |  |  | 
4 | CCCCCCCCCCCCCC(=O)OCOC(=O)C1=C(CSc2cnns2)CS[C@@H]2[C@H](NC(=O)/C(=N\OC)c3csc(N)n3)C(=O)N12 [Myristoyloxymethyl ester, Myristoyloxymethyl 7β-[2-(2-aminothiazol-4-yl)-(Z)-2-methoximinoacetamido]-3-[(1,2,3-thiadiazol-5-yl)-thiomethyl]ceph-3-em-4-carboxylate] | 16 | 8 to 16 | 0.5 to 1 |  |  |  |  | 
5 | Methylthiomethyl 7β-[2-(2-aminothiazol-4-yl)-(Z)-2-methoximinoacetamido]-3-[(1,2,3-thiadiazol-5-yl)-thiomethyl]ceph-3-em and ceph-2-em-carboxylate [methylthiomethyl ester] | 4 |  |  |  |  |  | 8 to 16 | 2 to 4
6 | CO/N=C(\C(=O)N[C@@H]1C(=O)N2C(C(=O)OC(C)OC(C)=O)=C(CSc3cnns3)CS[C@H]12)c1csc(N)n1 (stereo partly drawn) [Acetoxyethyl ester, Acetoxyethyl 7β-[2-(2-aminothiazol-4-yl)-(Z)-2-methoximinoacetamido]-3-[(1,2,3-thiadiazol-5-yl)-thiomethyl]ceph-3-em-4-carboxylate] | 2 | 2 to 4 | 1 to 2 |  |  |  |  | 
7 | CO/N=C(\C(=O)N[C@@H]1C(=O)N2C(C(=O)O)=C(CSc3cnns3)CS[C@H]12)c1csc(N)n1 [Unesterified acid, 7β-[2-(2-aminothiazol-4-yl)-(Z)-2-methoximinoacetamido]-3-[(1,2,3-thiadiazol-5-yl)-thiomethyl]ceph-3-em-4-carboxylic acid, reference compound] | 16 | 8 to 16 | 0.5 to 1 | 28 | 0.26 | 7.2 |  | 
8 | CO/N=C(\C(=O)N[C@@H]1C(=O)N2C(C(=O)OC3OC(=O)c4ccccc43)=C(CSc3cnns3)CS[C@H]12)c1csc(N)n1 (stereo partly drawn) [Phthalidyl ester, Phthalidyl 7β-[2-(2-aminothiazol-4-yl)-(Z)-2-methoximinoacetamido]-3-[(1,2,3-thiadiazol-5-yl)-thiomethyl]ceph-3-em-4-carboxylate] | 16 | 8 to 16 | 0.5 to 1 |  |  |  |  | 
9 | CO/N=C(\C(=O)N[C@@H]1C(=O)N2C(C(=O)OCOC(C)=O)=C(CSc3cnns3)CS[C@H]12)c1csc(N)n1 [Acetoxymethyl, Acetoxymethyl 7β-[2-(2-aminothiazol-4-yl)-(Z)-2-methoximinoacetamido]-3-[(1,2,3-thiadiazol-5-yl)thiomethyl]ceph-3-em-4-carboxylate] | 8 | 8 to 16 | 1 to 2 |  |  |  |  | 
10 | CO/N=C(\C(=O)N[C@@H]1C(=O)N2C(C(=O)OCOC(=O)C(C)(C)C)=C(CSc3cnns3)CS[C@H]12)c1csc(N)n1 [Pivaloyloxymethyl ester, Pivaloyloxymethyl 7β-[2-(2-aminothiazol-4-yl)-(Z)-2-methoximinoacetamido]-3-[(1,2,3-thiadiazol-5-yl)-thiomethyl]ceph-3-em-4-carboxylate] |  |  |  | 3.8 | 0.53 | 2 |  | 
11 | CO/N=C(\C(=O)N[C@@H]1C(=O)N2C(C(=O)OCOC(=O)C34CC5CC(CC(C5)C3)C4)=C(CSc3cnns3)CS[C@H]12)c1csc(N)n1 [Adamantylcarbonyl-oxymethyl, Adamantane-1-carbonyloxymethyl-7β-[2-(2-aminothiazol-4-yl)-(Z)-2-methoximinoacetamido]-3-[(1,2,3-thiadiazol-5-yl)-thiomethyl]ceph-3-em-4-carboxylate] | 2 | 2 to 4 | 1 to 2 |  |  |  |  | 
12 | CCCCCCCCCCOCOC(=O)C1=C(CSc2cnns2)CS[C@@H]2[C@H](NC(=O)/C(=N\OC)c3csc(N)n3)C(=O)N12 [Declyoxymethyl ester, Decyloxymethyl 7β-[2-(2-aminothiazol-4-yl)-(Z)-2-methoximinoacetamido]-3-[(1,2,3-thiadiazol-5-yl)-thiomethyl]ceph-3-em-4-carboxylate] | 4 | 8 to 16 | 2 to 4 |  |  |  |  | 
13 | COCOC(=O)C1=C(CSc2cnns2)CS[C@@H]2[C@H](NC(=O)/C(=N\OC)c3csc(N)n3)C(=O)N12 [Methoxymethyl ester, Methoxymethyl 7β-[2-(2-aminothiazol-4-yl)-(Z)-2-methoximinoacetamido]-3-[(1,2,3-thiadiazol-5-yl)-thiomethyl]ceph-3-em-4-carboxylate] | 16 | 8 to 16 | 0.5 to 1 |  |  |  |  | 
